From PubChem BioAssay (NCI)
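Each compound was tested at five concentrations against cells in 96-well plates for 48 hours. The concentration for 50% growth inhibition is given as GI50. TGI marks complete inhibition of growth.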

Tests used:
Assay in all cases: NCI anticancer screen, dose series, 48 h
MDA-N = test system: MDA-N
SK-MEL-5 melanoma = test system: SK-MEL-5 melanoma
MDA-MB-231 breast = test system: MDA-MB-231 breast
UACC-62 melanoma = test system: UACC-62 melanoma
MOLT-4 leukemia = test system: MOLT-4 leukemia
HOP-92 NSCLC = test system: HOP-92 NSCLC
OVCAR-4 ovarian = test system: OVCAR-4 ovarian
RXF 393 renal = test system: RXF 393 renal
MCF7 breast = test system: MCF7 breast
K-562 leukemia = test system: K-562 leukemia

Row | Compound | TGI (MDA-N) | TGI (SK-MEL-5 melanoma) | TGI (MDA-MB-231 breast) | TGI (UACC-62 melanoma) | TGI (MOLT-4 leukemia) | TGI (HOP-92 NSCLC) | TGI (OVCAR-4 ovarian) | TGI (RXF 393 renal) | TGI (MCF7 breast) | TGI (K-562 leukemia) | GI50 (SK-MEL-5 melanoma) | GI50 (MDA-MB-231 breast) | GI50 (MOLT-4 leukemia) | GI50 (HOP-92 NSCLC) | GI50 (OVCAR-4 ovarian) | GI50 (RXF 393 renal) | GI50 (MCF7 breast) | GI50 (K-562 leukemia) | GI50 (UACC-62 melanoma)
1 | CC(C)(O)CO/N=C1\C(c2c(O)[nH]c3ccccc23)=Nc2ccccc21 | > 45 µM | 2.28 µM | > 75.7 µM | 2.66 µM | > 43.1 µM | > 91.6 µM | 21.9 µM | 2.48 µM | 7.16 µM | > 100 µM |  |  |  |  |  |  |  |  | 
2 | C/C=C1/CN2CCC34c5ccccc5N(C)C23C2CC1C4(C(=O)OC)C(O)O2 (stereo not given) | > 100 µM | > 100 µM | > 100 µM | > 100 µM | > 100 µM | > 100 µM | > 100 µM |  | > 100 µM | > 100 µM |  |  |  |  |  |  |  |  | 
3 | CNS(=O)(=O)c1ccc2[nH]c(O)c(C3=Nc4ccccc4C3=O)c2c1 | > 100 µM | > 100 µM | > 100 µM | > 100 µM | > 100 µM |  |  | > 100 µM |  | > 100 µM |  |  |  |  |  |  |  |  | 
4 | Cc1ccc([N+](=O)[O-])cc1S(=O)(=O)Nc1ccc(C2=NN(C(=O)c3ccccc3)C(c3cccs3)C2)cc1 (stereo not given) | 77.4 µM | 32.7 µM | 44 µM |  | > 100 µM | 55.3 µM | > 100 µM | 56.8 µM | > 100 µM | > 100 µM |  |  |  |  |  |  |  |  | 
5 | N#CCCOCN(CO)c1nc(N(CO)COCCC#N)nc(N(CO)COCCC#N)n1 |  |  |  |  | 50.7 µM | 45.8 µM | 64 µM | 38.4 µM |  | 61.2 µM |  |  |  |  |  |  |  |  | 
6 | NC(=O)Nc1ccc(C(=O)NCCCNC(=O)c2ccc(NC(N)=O)cc2)cc1 | > 100 µM | > 100 µM |  | > 100 µM | > 100 µM | > 100 µM | > 100 µM | > 100 µM | > 100 µM | > 100 µM |  |  |  |  |  |  |  |  | 
7 | CCCC1=C(C(=O)OCC)C(c2ccccc2OC)C(C#N)=C(N)O1 (stereo not given) |  | 64.7 µM | 57.6 µM |  | 89.8 µM | > 100 µM | > 100 µM | > 100 µM | > 100 µM | > 100 µM | 23.9 µM | 22.4 µM | 26.1 µM | 37.7 µM | 65.4 µM | 46.5 µM | 28.4 µM | 31.9 µM | 
8 | Cc1c(NC(=O)c2cc([N+](=O)[O-])cc([N+](=O)[O-])c2)c(=O)n(-c2ccccc2)n1C | > 100 µM | > 100 µM | > 100 µM | > 100 µM | > 100 µM | > 100 µM | > 100 µM | > 100 µM | > 100 µM | > 100 µM |  |  |  |  |  |  |  |  | 
9 | C[C@H](N[C@H]1CCC[C@]1(O)C#Cc1ccc2c(c1)OCO2)c1ccccc1 |  | > 25 µM | > 25 µM | > 25 µM | > 25 µM | > 25 µM | > 25 µM | > 25 µM | > 25 µM | > 25 µM |  |  |  |  |  |  |  |  | 
10 | O=C(NCCNc1nccc(-c2c(-c3cccc(O)c3)nc3sccn23)n1)Nc1cccc(C(F)(F)F)c1 |  | 8.43 µM | 12.3 µM | 6.51 µM | 14.6 µM | 9.38 µM | 14.2 µM | 5.1 µM | 16 µM | 57.1 µM | 2.62 µM | 3.52 µM | 3.6 µM | 2.19 µM | 3.97 µM | 2.41 µM | 3.57 µM | 3.42 µM | 1940 nM
11 | COc1cc2c(cc1OC)C1Cc3cc(OC)c(OC)cc3C(C2)O1 | > 100 µM |  | > 100 µM | > 100 µM | > 100 µM | > 100 µM | > 100 µM | > 100 µM | > 100 µM | > 100 µM |  |  |  |  |  |  |  |  | 
12 | COc1ccccc1/C=C/c1c(N)ncnc1Nc1cccc(Cl)c1 | 55.8 µM | 43.4 µM | 42.5 µM | 33.3 µM | > 100 µM | 0.588 µM | 34.4 µM | 38.4 µM | > 100 µM | > 100 µM |  |  |  |  |  |  |  |  | 
13 | N#Cc1c(-c2cccc(Cl)c2)cc(-c2ccc(Cl)cc2)nc1N | 42.3 µM | 30.1 µM | 32 µM | 32.7 µM | 58.6 µM | 25.3 µM | 33.1 µM | 32.3 µM | 38.3 µM | > 100 µM |  |  |  |  |  |  |  |  | 
14 | Cc1ccc2ccc3ccc(C)nc3c2n1 | > 100 µM | > 100 µM | > 100 µM | > 100 µM | > 100 µM | > 100 µM | > 100 µM | > 100 µM | 0.93 µM | > 100 µM |  |  |  |  |  |  |  |  | 
15 | COc1c(O)c(O)c2c(c1O)C(=O)c1cc(C)cc(O)c1C2=O | > 100 µM | > 100 µM | 42 µM | 54.5 µM | > 100 µM | > 100 µM | > 89.1 µM | > 100 µM | > 100 µM | 98.5 µM |  |  |  |  |  |  |  |  | 
16 | Cc1c2cc[n+](C)cc2c(C)c2c1[nH]c1ccc(Cl)cc12 | > 59.3 µM | 5.99 µM | > 47.5 µM | 45.1 µM | 58.4 µM | 26.5 µM | 26.5 µM | 19.1 µM | 15.9 µM | 45.5 µM |  |  |  |  |  |  |  |  | 
17 | C[C@@H](CO)C1=CC(C#C[Si](C)(C)C)N(C(=O)Oc2ccccc2)c2ccccc21 (stereo not given in full) | 23.7 µM | 30.5 µM | 37.8 µM | 21.9 µM | > 100 µM | 24.6 µM | 27 µM | 20 µM |  | 95.5 µM |  |  |  |  |  |  |  |  | 
18 | CN=C(N)/N=C(\N)Nc1cc2ccccc2c2ccccc12 | 27.8 µM | 30.6 µM | 26.2 µM | 28.2 µM | 34 µM | 40.8 µM | 33.6 µM | 31.9 µM | 26.1 µM | 44.5 µM |  |  |  |  |  |  |  |  | 
19 | CCOC(=O)C(=O)Nc1c(CC)cccc1C(C)CC (stereo not given) |  | > 100 µM |  | > 100 µM | > 100 µM | > 100 µM | > 100 µM | > 100 µM |  | > 100 µM |  |  |  |  |  |  |  |  | 
20 | CSc1ccc(-c2cc(-c3nc4ccccc4[nH]3)nc(N)c2C#N)cc1 | 66.1 µM | 29 µM | 36.1 µM | 26 µM | 37.1 µM | 42.9 µM |  | 24.7 µM | 54.6 µM | 58.6 µM |  |  |  |  |  |  |  |  | 
21 | c1ccc(CCN2CCOCC2)nc1 | > 100 µM | > 100 µM | > 100 µM | > 100 µM |  | > 100 µM | > 100 µM | > 100 µM | > 100 µM | > 100 µM |  |  |  |  |  |  |  |  | 
